Assay [1] concerns mitochondrial membrane potential (ΔΨm) in U-87MG cells. As to the kind of experiment: Mitochondrial membrane potential (TMRM). The class given is cell-based, human. Conditions: 3 h. Here is the method:
Figure 2 Mode of action of VDAC1-based peptides – interacting with- and detaching HK, releasing Cyto c, decreasing ATP level and inducing apoptosis A. Purified HK-II was fluorescently labeled using the NanoTemper protein-labeling Kit BLUE. […] Then, 3-5 μl of the samples were loaded into MST-grade glass capillaries and thermophoresis was measured using a Monolith-NT115 apparatus, as described in Materials and methods available online in Supplemental information. […] The final DMSO concentration in control and peptide-treated cells was 0.07%. Fixed cells were visualized using confocal microscopy (Olympus 1×81), as described in Materials and Methods available online in Supplemental information. […] The levels of HK in the supernatants were quantified and are presented as relative units. D. D-ΔN-Ter-Antp induces mitochondrial inner membrane depolarization analyzed as described in Materials and Methods available online in Supplemental information. […] Cells then were analyzed for Δψ using TMRM. Δψ is presented as percentage of control. […] Release of Cyto c from the mitochondria was analyzed by immunostaining using anti-Cyto c antibodies and confocal microscopy (Olympus 1×81) as described in Materials and Methods available online in Supplemental information. […] Quantification of apoptosis in control and peptide's treated cells are presented bellow the images. […]

The subject of a further assay is U-87MG cells. As to the kind of experiment: Apoptosis by FITC-Annexin V/PI staining and flow cytometry, U-87MG. The assay is classed as cell-based, human. Conditions: 3 h at 37°C, Fig 6G-H. The method, then: Sections were also hematoxylin-stained and visualized by microscopy. B. Tissue lysates obtained from controls and several TF-D-LP4-TTs were immunoblotted for Nestin, Sox2, NGFR, CD133, and Klf4. C. Quantitative analysis of immunoblots is shown (n=2-4). D. Immunoblot analysis of, Klf4, Sox2, Nestin and Musashi expression in U-87MG and G7 cell lines, using specific antibodies. E. Quantitative analysis of immunoblots. […] G. G7 (·) and U-87MG cells (○) (2×10^5) were incubated for 3 h with the DMSO (0.15%) or with the indicated concentration of Retro-Tf-D-LP4 peptide in serum-free growth medium at 37°C and then subjected to FITC-Annexin V/PI staining and flow cytometry analysis. H. Representative FACS analysis of DMSO- (left) and 5 μM of Retro-Tf-D-LP4- (right) treated G7 or U-87MG cells.
Cells (6×10^5 /ml) were incubated in 500 μl serum-free medium with the peptide of interest for 6 h at 37°C in the presence of 5% CO2. The cells were then trypsinized, centrifuged (1500xg, 5 min), washed with PBS and analyzed for cell death using propidium iodide (PI) staining and flow cytometer (Beckton-Dickinson, San Jose, CA) and BD CellQuest Pro software. Apoptotic cell death was also analyzed by PI and annexin V-FITC staining, and by acridine orange and ethidium bromide staining and light microscopy (Olympus LX2-KSP).

Each structure is given as a SMILES string. Non-standard residues stand in square brackets, D forms with d. Residues, ends and D or L forms follow the SMILES beside them.

On to `CC[C@@H](C)[C@@H](NC(=O)[C@@H](CCCCN)NC(=O)[C@H](NC(=O)[C@@H](CCC(N)=O)NC(=O)[C@@H](CCCNC(=N)N)NC(=O)[C@@H](CC(C)C)NC(=O)CNC(=O)[C@@H](Cc1ccccc1)NC(=O)CNC(=O)[C@@H](Cc1ccc(O)cc1)NC(=O)CNC(=O)[C@@H](CCCCN)NC(=O)[C@H](NC(=O)[C@@H](Cc1ccccc1)NC(=O)[C@H](NC(=O)[C@@H](CC(=O)O)NC(=O)[C@H](N)CCCNC(=N)N)C(C)C)[C@H](C)O)[C@H](C)CC)C(=O)N[C@H](Cc1c[nH]c2ccccc12)C(=O)N[C@H](Cc1ccccc1)C(=O)N[C@H](CCC(N)=O)C(=O)N[C@H](CC(N)=O)C(=O)N[C@H](CCCNC(=N)N)C(=O)N[C@H](CCCNC(=N)N)C(=O)N[C@H](CCSC)C(=O)N[C@H](CCCCN)C(=O)N[C@H](Cc1c[nH]c2ccccc12)C(=O)N[C@H](CCCCN)C(=O)N[C@H](CCCCN)C(=O)O` [D-ΔN-Ter-Antp] (H-[dR][dD][dV][dF][dT][dK]G[dY]G[dF]G[dL][dR][dQ][dI][dK][dI][dW][dF][dQ][dN][dR][dR][dM][dK][dW][dK][dK]-OH; N-terminus and C-terminus assumed), for which, in assay [1], the “mitochondrial membrane potential (TMRM fluorescence)” value was “decrease in ΔΨm”.
For `CC[C@H](C)[C@H](NC(=O)[C@H](Cc1ccc(O)cc1)NC(=O)[C@@H]1CCCN1C(=O)[C@H](CCCNC(=N)N)NC(=O)[C@H](Cc1c[nH]cn1)NC(=O)[C@H](CO)NC(=O)[C@H](Cc1c[nH]c2ccccc12)NC(=O)[C@@H](NC(=O)[C@H](Cc1c[nH]c2ccccc12)NC(=O)[C@H](CCC(=O)O)NC(=O)[C@@H](CCCCN)NC(=O)[C@@H](CCCCN)NC(=O)[C@@H](CC(C)C)NC(=O)[C@@H](CCC(=O)O)NC(=O)[C@H](NC(=O)[C@@H](C)NC(=O)[C@H](NC(=O)[C@@H](CC(N)=O)NC(=O)[C@@H](CC(C)C)NC(=O)[C@@H](C)NC(=O)[C@@H](Cc1c[nH]c2ccccc12)NC(=O)[C@H](NC(=O)[C@@H](C)NC(=O)CNC(=O)[C@@H](CC(N)=O)NC(=O)[C@@H](CO)NC(=O)[C@@H](CC(N)=O)NC(=O)[C@H](CCCCN)NC(=O)[C@H](Cc1c[nH]c2ccccc12)NC(=O)[C@@H](NC(=O)[C@H](Cc1c[nH]c2ccccc12)NC(=O)[C@@H](N)CCCCN)[C@@H](C)O)[C@H](C)O)C(C)C)[C@H](C)O)[C@@H](C)O)C(=O)N[C@@H](C)C(=O)N[C@@H](Cc1c[nH]cn1)C(=O)O` [Retro-Tf-D-LP4], in the assay on U-87MG cells, the “apoptosis of U-87MG cells” value is recorded as “induces apoptosis”.

Source of the values: paper PMC5458211, “Mitochondrial VDAC1-based peptides: Attacking oncogenic properties in glioblastoma” (Oncotarget, 2017).
